Marks after values point to notes of the source that are not given here.
How the values were obtained:
[1] = tested on: transplant tumor of human granulocytic leukemia K562; assay: Test Example 2: therapeutic effect on naked mice with transplant tumor of human granulocytic leukemia K562; conditions: for Body weight before dissection d0 / TV x ± SD d0: d0 = grouping and first administration; for Body weight before dissection dn / TV x ± SD dn: dn = day 21; for CR: complete extinction (complete resolution) of tumor: end of experiment (Day 21), mice with CR/group; for mice in which the tumor was extinct: 75 mg/kg oral gavage once per day
Method: Animals were allowed to acclimatize the environment for one week, and then the animals were inoculated subcutaneously human leukemia K562 cells. When the tumors have grown to a volume of 100-300 mm^3, the animals were randomly grouped (d0). The naked mice were administered by oral gavage. […] The animals were administered once per day for 21 days. Measured the volume of the tumors 2-3 times per week and weighed the animals followed by recording the data. The formula for calculating the volume of tumor (V): V=½×a×b^2, wherein a represents the length and b represents the width.
The mice were continuously administered by oral gavage once per day for 21 days.

[2] = tested on: transplant tumor of human granulocytic leukemia K562; assay: Test Example 3: therapeutic effect of HH-GV-678 and Gleevec on naked mice with transplant tumor of human granulocytic leukemia K562; conditions: for Body weight before dissection d0 / TV x ± SD d0: d0 = grouping and first administration; for Body weight before dissection dn / TV x ± SD dn: dn = day 21; for CR: complete resolution: end of experiment, mice with CR/group
Text: Animals were allowed to acclimatize the environment for one week, and then the animals were inoculated subcutaneously human leukemia K562 cells. When the tumors have grown to a volume of 100-300 mm^3, the animals were randomly grouped (d0). […] Measured the volume of the tumors 2-3 times per week and weighed the animals followed by recording the data. The formula for calculating the volume of tumor (V): V =1/2×a×b^2, wherein a represents the length and b represents the width.

[3] = tested on: human acute promyelocytic leukemia HL-60 cell; assay: MTT assay, inhibition of proliferation of HL-60 cells cultured in vitro (Bcr-Abl negative control model); type: cell-based; conditions: drug 48 h
Method: HL-60: human acute promyelocytic leukemia Cell. The expression of Bcr-Abl tyrosine kinase is negative.
(§1) Cells were grown in a medium containing 10% fetal bovine serum and were kept in the logarithmic growth phase.
(§2) The cells were pre-incubated in an incubator at 37° C. in 5% CO2 for 24 hours. The drug with 6 to 8 different concentrations was added and treated continuously for 48 h.
(§3) After the treatment of the drug, take photos by a phase contrast microscope. Then MTT treatment solution was added into each well and after 4 hours lysed the cells by DMSO. The OD values for each well were determined by using Plarstar ELIASA.
Concentration setting: 5-8 concentrations within the range of 0.001-10 μM were set, and each concentration is set in triplicate.

[4] = tested on: human chronic myelogenous leukemia K562 cell (expressing P210 Bcr-Abl tyrosine kinase); assay: MTT assay, inhibition of proliferation of K562 cells cultured in vitro
Method: as §1, §2, §3

[5] = 75 mg/kg oral gavage once per day 21 days
[6] = 150 mg/kg oral gavage once per day 21 days
[7] = 150 mg/kg each time, oral gavage twice per day 21 days
[8] = 37.5 mg/kg oral gavage once per day 21 days

For `Cc1ccc(NC(=O)c2ccc(CN3CCN(C)CC3)cc2)cc1Nc1nccc(-c2cccnc2)n1` [Gleevec, Imatinib, reference compound], which “RTV x ± SD” value [1, 5] is on record?
The value was 8.56 ± 7.09.

What about the T/C [1, 5] of the same compound?
The T/C was 121.0%.

What about the “Body weight before dissection d0” value [1, 5] of the same compound?
The value was 19.3 gram.

What about the “TV x ± SD d0” value [1, 5] of the same compound?
The value was 153 ± 68 mm^3.

And the “Body weight before dissection dn” value [1, 5]?
Its value is 15.6 gram.

What about the “TV x ± SD dn” value [1, 5] of the same compound?
Its value is 971 ± 154 mm^3.

What about the “CR: complete extinction (complete resolution) of tumor” value (“CR: complete extinction” below) [1, 5] of the same compound?
Its value is 0/6.

And the mice died ([1]; 150 mg/kg group, Day 18, death considered to be related to the tumor)?
The mice died was 1/6.

And the “RTV x ± SD” value [1, 6]?
Its value is 8.30 ± 5.65.

And the T/C [1, 6]?
Its T/C is 117.7%.

And the “Body weight before dissection d0” value [1, 6]?
Its value is 20.3 gram.

What about the “TV x ± SD d0” value [1, 6] of the same compound?
Its value is 127 ± 45 mm^3.

And the “Body weight before dissection dn” value [1, 6]?
Its value is 16.3 gram.

And the “TV x ± SD dn” value [1, 6]?
The value was 824 ± 170 mm^3.

And the “CR: complete extinction” value [1, 6]?
The value was 0/6.

What about the “effect on the growth of the tumor” value ([1]; present protocol: 75 and 150 mg/kg oral gavage once per day 21 days) of the same compound?
Its value is “did not have significant effect on the growth of the tumor”.

And the T/C [2, 7]?
The T/C was 34.2* %.

And the “Body weight before dissection d0” value [2, 7]?
The value was 24.1 gram.

What about the “TV x ± SD d0” value [2, 7] of the same compound?
The value was 144 ± 33 mm^3.

And the “Body weight before dissection dn” value [2, 7]?
The value was 20.6 gram.

And the “TV x ± SD dn” value [2, 7]?
The value was 501 ± 347 mm^3.

What about the “CR: complete resolution” value [2, 7] of the same compound?
The value was 2/8.

And the “complete resolution (CR) of tumors, mice of the group” value ([2]; 150 mg/kg each time, oral gavage twice per day, Day 12)?
The value was 1/8.

How did the “RTV x ± SD” value [1, 5] turn out when `CS(=O)(=O)O.Cc1ncc(NC(=O)c2ccc(CN3CCN(C)CC3)c(Cl)c2)cc1Nc1nccc(-c2cccnc2)n1` [HH-GV-E, 4-((4-methylpiperazin-1-yl)methyl)-N-[6-methyl-5-[[4-(pyrid-3-yl)pyrimidin-2-yl]amino]pyrid-3-yl]-3-chloro-benzamide methanesulfonic acid salt] was run?
Its value is 9.60 ± 6.51.

And the T/C [1, 5]?
Its T/C is 103.6%.

And the “Body weight before dissection d0” value [1, 5]?
The value was 18.5 gram.

And the “TV x ± SD d0” value [1, 5]?
Its value is 130 ± 58 mm^3.

And the “Body weight before dissection dn” value [1, 5]?
Its value is 14.2 gram.

What about the “TV x ± SD dn” value [1, 5] of the same compound?
The value was 954 ± 242 mm^3.

What about the “CR: complete extinction” value [1, 5] of the same compound?
The value was 0/6.

And the “RTV x ± SD” value [1, 6]?
The value was 3.24 ± 1.65.

And the T/C [1, 6]?
The T/C was 47.4* %.

And the “effect on the growth of K562 tumor” value [1, 6]?
The value was “significant inhibition effect on the growth of K562 tumor”.

And the “Body weight before dissection d0” value [1, 6]?
The value was 18.8 gram.

What about the “TV x ± SD d0” value [1, 6] of the same compound?
The value was 149 ± 31 mm^3.

What about the “Body weight before dissection dn” value [1, 6] of the same compound?
Its value is 15.2 gram.

What about the “TV x ± SD dn” value [1, 6] of the same compound?
The value was 455 ± 214 mm^3.

And the “CR: complete extinction” value [1, 6]?
The value was 0/6.

And the IC50 [3]?
The IC50 was > 10 µM.

And the “selectivity for the target” value ([4]; HL-60 versus K562 cells)?
Its value is > 125 folds.

And the IC50 ([4]; Homo sapiens, K562, 48 h, read-out: IC50, inhibition of proliferation of leukemia cells)?
The IC50 was 0.08 µM.

What does the source list for `CS(=O)(=O)O.Cc1ncc(NC(=O)c2ccc(CN3CCN(C)CC3)c(C(F)(F)F)c2)cc1Nc1nccc(-c2cccnc2)n1` [HH-GV-F, 4-((4-methylpiperazin-1-yl)methyl)-N-[6-methyl-5-[[4-(pyrid-3-yl)pyrimidin-2-yl]amino]pyrid-3-yl]-3-(trifluoromethyl)-benzamide methanesulfonic acid salt]?
RTV x ± SD [1, 8]: 2.85 ± 3.18; T/C [1, 8]: 40.4* %; effect on the growth of K562 tumor [1, 8]: significantly inhibited the growth of K562 tumor, but did not cause the tumor extinct; Body weight before dissection d0 [1, 8]: 19.3 gram; TV x ± SD d0 [1, 8]: 119 ± 51 mm^3; Body weight before dissection dn [1, 8]: 18.8 gram; TV x ± SD dn [1, 8]: 294 ± 255 mm^3; CR: complete extinction (complete resolution) of tumor [1, 8]: 0/6; RTV x ± SD [1, 5]: 1.38 ± 3.08; T/C [1, 5]: 19.6* %; Body weight before dissection d0 [1, 5]: 19.2 gram; TV x ± SD d0 [1, 5]: 127 ± 46 mm^3; Body weight before dissection dn [1, 5]: 19.3 gram; TV x ± SD dn [1, 5]: 95 ± 199 mm^3; CR: complete extinction (complete resolution) of tumor [1, 5]: 4/6; mice in which the tumor was extinct ([1]; Day 9): 1/6; mice in which the tumor was extinct ([1]; Day 12): 4/6; mice in which the tumor was extinct ([1]; Day 15): 5/6; IC50 [3]: ≥ 10 µM; RTV x ± SD [2, 5]: 0 ± 0; T/C [2, 5]: 0* %; Body weight before dissection d0 [2, 5]: 24.0 gram; TV x ± SD d0 [2, 5]: 168 ± 65 mm^3; Body weight before dissection dn [2, 5]: 24.7 gram; TV x ± SD dn [2, 5]: 0 ± 0 mm^3; CR: complete resolution [2, 5]: 7/8; complete resolution (CR) of tumors, mice of the group ([2]; 75 mg/kg oral gavage once per day, Day 6): 3/8; complete resolution (CR) of tumors, mice of the group ([2]; 75 mg/kg oral gavage once per day, Day 9): 7/8; complete resolution (CR) of tumors, mice of the group ([2]; 75 mg/kg oral gavage once per day, Day 12): 8/8; RTV x ± SD [2, 6]: 0 ± 0; T/C [2, 6]: 0* %; Body weight before dissection d0 [2, 6]: 24.3 gram; TV x ± SD d0 [2, 6]: 152 ± 37 mm^3; Body weight before dissection dn [2, 6]: 23.9 gram; TV x ± SD dn [2, 6]: 0 ± 0 mm^3; CR: complete resolution [2, 6]: 8/8; complete resolution (CR) of tumors, mice of the group ([2]; 150 mg/kg oral gavage once per day, Day 6): 6/8; complete resolution (CR) of tumors, mice of the group ([2]; 150 mg/kg oral gavage once per day, Day 9): 8/8; toxicity ([2]; mouse, in vivo): relatively lower
